row,melting point,SMILES
1,211 to 214 °C,COc1cc2c(C3C(=O)Nc4c(F)cccc43)ncnc2cc1OCCCN1CCOCC1.Cl.Cl (stereo not shown)
2,167.5 to 168.7 °C,"CN(C)C(=O)c1ccc2c(c1)C(c1ncnc3cc(OCCCN4CCOCC4)ccc13)C(=O)N2 (stereo not shown) [Example 43, 3-[7-(3-Morpholin-4-yl-propoxy)quinazolin-4-yl]-2-oxo-2,3-dihydro-1H-indole-5-carboxylic acid dimethylamide]"
3,195 to 198 °C,"CNC(=O)c1ccc2c(c1)C(c1ncnc3cc(OCCCN4CCOCC4)ccc13)C(=O)N2 (stereo not shown) [Example 44, 3-[7-(3-Morpholin-4-yl-propoxy)-quinazolin-4-yl]-2-oxo-2,3-dihydro-1H-indole-5-carboxylic acid methylamide]"
4,200 °C (dec.),CN1CCN(CCCOc2ccc3c(C4C(=O)Nc5ccc(C#N)cc54)ncnc3c2)CC1.Cl.Cl (stereo not shown)

# Source: patent publication US20090312322A1, “Use of Oxindole Derivatives in the Treatment of Dementia Related Diseases, Alzheimer's Disease and Conditions Associated with Glycogen Synthase Kinase-3” (AstraZeneca AB, priority 2001, published 2009)
